Results from patent US10407467B2, “Polymyxin derivatives and their use in combination therapy together with different antibiotics” (priority 2013, dated 2019).
Counter-ions that a name gives are not always drawn. Like-named read-outs stand apart in the source and are kept apart here. Numbered stars: 1 amine (or outer) side, 2 acyl side, 3 side chain; on linkers, the order of the positions; unused ones are H or OH. Bridge positions count the residues as written; N and C are the ends. Square brackets hold non-standard residues; d marks the D form. Peptide text beside a SMILES is read from it. * marks the point of attachment. ξ: configuration not given here. ξHexahydromandeloyl = O=C(C(O)C1CCCCC1)*; Thr(3ξ) = CC(O)[C@H](N)C(=O)O; NH(2-ClPh) = Clc1ccccc1N*; Dab = NCC[C@H](N)C(=O)O; X3 = O=C([C@H]1CCCNC1)*; CO = O=C([*:1])[*:2]; Ahp = NCCCCCCC(=O)O

Tests used:
HK-2 cell line = assay: In vitro renal cell toxicity assay (resazurin reduction); assay type: cell-based, human
P. aeruginosa ATCC 27853 = details: ATCC 27853, in vivo
Klebsiella pneumoniae [1] = assay: MIC, compound in combination with a second agent (broth microdilution); assay type: cell-based; details: 1:1 (wt:wt) combination with Rifampicin, MIC = total drug concentration; for MIC K. pneumoniae CCUG-59348: strain CCUG-59348; for MIC K. pneumoniae ATCC 4352: strain ATCC 4352; for MIC K. pneumoniae ATCC-BAA-2146: strain ATCC-BAA-2146
Outline: (§1)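 Read-out is the total-drug MIC of a 1:1 weight ratio combination with another agent, e.g. rifampicin. Duplicates within 2-fold gave the lower value; wider spread meant a non-valid assay. Where compounds were tested multiple times, the mode is given.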

Acinetobacter baumannii [2] = assay: as above; assay type: cell-based; details: 1:1 (wt:wt) combination with Rifampicin, MIC = total drug concentration; for MIC A. baumannii ATCC BAA-747: strain ATCC BAA-747; for MIC A. baumannii CCUG57249: strain CCUG57249; for MIC A. baumannii NCTC 13423: strain NCTC 13423; for MIC A. baumannii NCTC 13424: strain NCTC 13424
Outline: as §1

Escherichia coli [3] = assay: as above; assay type: cell-based; details: 1:1 (wt:wt) combination with Rifampicin, MIC = total drug concentration; for MIC E. coli ATCC25922: strain ATCC25922; for MIC E. coli NCTC9001: strain NCTC9001
Outline: as §1

Pseudomonas aeruginosa [4] = assay: as above; assay type: cell-based; details: 1:1 (wt:wt) combination with Rifampicin, MIC = total drug concentration; for MIC P. aeruginosa ATCC 27853: strain ATCC 27853; for MIC P. aeruginosa ATCC CRM-9027: strain ATCC CRM-9027; for MIC P. aeruginosa ATCC-47: strain ATCC-47; for MIC P. aeruginosa CCUG 59626: strain CCUG 59626
Outline: as §1

Klebsiella pneumoniae [5] = assay: MIC, sole activity (no second agent); assay type: cell-based
Outline: (§2)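 Up to four strains per species were tested in cation-adjusted Mueller-Hinton broth, with inoculum made by direct colony suspension from 18-24 hour Mueller-Hinton agar plates, adjusted to 0.5 McFarland. Duplicates differing by under 2-fold gave the lower value; greater spread voided the run. Values are relative to Polymyxin B.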

Acinetobacter baumannii [6] = assay: MIC, sole activity (no second agent); assay type: cell-based
Outline: as §2

Escherichia coli [7] = assay: MIC, sole activity (no second agent); assay type: cell-based
Outline: as §2

Pseudomonas aeruginosa [8] = assay: MIC, sole activity (no second agent); assay type: cell-based
Outline: as §2

[9] = Table 6A, no second agent, different supplier of Cation-adjusted MHB
[10] = in the absence of Rifampicin, strain ATCC 4352
[11] = in the absence of Rifampicin, strain ATCC25922
[12] = in the absence of Rifampicin, strain ATCC27853

Compound: CC(C)C[C@@H]1NC(=O)[C@@H](Cc2ccccc2)NC(=O)[C@H](CCN)NC(=O)[C@@H](NC(=O)[C@H](CCN)NC(=O)[C@@H](NC(=O)[C@H](CCN)NC(=O)CC(N)C2CCCCC2)C(C)O)CCNC(=O)[C@H](C(C)O)NC(=O)[C@H](CCN)NC(=O)[C@H](CCN)NC1=O (mixture of isomers) [Example 39, 3-(RS)-(3-Amino-3-cyclohexyl)propanoyl polymyxin B decapeptide, trifluoroacetate salt]
- HK-2 IC50 rel to PMB (HK-2 cell line): 1.5-2
- Log reduction from vehicle (CFU/g) (P. aeruginosa ATCC 27853; iv, 2 mg/kg, 9 h): 2.56 log CFU/g
- Log reduction from vehicle (CFU/g) (P. aeruginosa ATCC 27853; iv, 4 mg/kg, 9 h): 3.88 log CFU/g
- MIC K. pneumoniae CCUG-59348 (Klebsiella pneumoniae [1]): 1 micrograms/mL
- MIC A. baumannii ATCC BAA-747 (Acinetobacter baumannii [2]): 0.125 micrograms/mL
- MIC A. baumannii CCUG57249 (Acinetobacter baumannii [2]): ≤0.06 micrograms/mL
- MIC A. baumannii NCTC 13423 (Acinetobacter baumannii [2]): ≤0.06 micrograms/mL
- MIC A. baumannii NCTC 13424 (Acinetobacter baumannii [2]): 0.125 micrograms/mL
- MIC E. coli ATCC25922 (Escherichia coli [3]): ≤0.06 micrograms/mL
- MIC E. coli NCTC9001 (Escherichia coli [3]): 0.125 micrograms/mL
- MIC P. aeruginosa ATCC 27853 (Pseudomonas aeruginosa [4]): 0.125 micrograms/mL
- MIC P. aeruginosa ATCC CRM-9027 (Pseudomonas aeruginosa [4]): 0.25 micrograms/mL
- MIC P. aeruginosa ATCC-47 (Pseudomonas aeruginosa [4]): 0.125 micrograms/mL
- MIC P. aeruginosa CCUG 59626 (Pseudomonas aeruginosa [4]): 0.125 micrograms/mL
- MIC K. pneumoniae ATCC 4352 (Klebsiella pneumoniae [5]; [9]): 1 micrograms/mL
- MIC K. pneumoniae ATCC BAA-2146 (Klebsiella pneumoniae [5]; [9]): 2 micrograms/mL
- MIC K. pneumoniae ATCC 4352 (Klebsiella pneumoniae [5]; [10]): 1 micrograms/mL
- MIC K. pneumoniae ATCC-BAA2146 (Klebsiella pneumoniae [5]; in the absence of Rifampicin, strain ATCC-BAA2146): 32 micrograms/mL
- MIC K. pneumoniae CCUG-59348 (Klebsiella pneumoniae [5]; in the absence of Rifampicin, strain CCUG-59348): >32 micrograms/mL
- MIC A. baumannii ATCC BAA-747 (Acinetobacter baumannii [6]; [9]): 1 micrograms/mL
- MIC A. baumannii NCTC 13424 (Acinetobacter baumannii [6]; [9]): 2 micrograms/mL
- MIC A. baumannii ATCC13424 (Acinetobacter baumannii [6]; in the absence of Rifampicin, strain ATCC13424): 0.125 micrograms/mL
- MIC A. baumannii ATCCBAA-747 (Acinetobacter baumannii [6]; in the absence of Rifampicin, strain ATCCBAA-747): 1 micrograms/mL
- MIC A. baumannii CCUG57249 (Acinetobacter baumannii [6]; in the absence of Rifampicin, strain CCUG 57249): 1 micrograms/mL
- MIC A. baumannii NCTC 13423 (Acinetobacter baumannii [6]; in the absence of Rifampicin, strain NCTC13423): 0.25 micrograms/mL
- MIC E. coli ATCC25922 (Escherichia coli [7]; [9]): 2 micrograms/mL
- MIC E. coli NCTC 13441 (Escherichia coli [7]; [9]): 2 micrograms/mL
- MIC E. coli ATCC25922 (Escherichia coli [7]; [11]): 2 micrograms/mL
- MIC E. coli NCTC9001 (Escherichia coli [7]; in the absence of Rifampicin, strain NCTC9001): 4 micrograms/mL
- MIC P. aeruginosa ATCC 27853 (Pseudomonas aeruginosa [8]; [9]): 0.25 micrograms/mL
- MIC P. aeruginosa CCUG 59347 (Pseudomonas aeruginosa [8]; [9]): 0.5 micrograms/mL
- MIC P. aeruginosa ATCC 27853 (Pseudomonas aeruginosa [8]; [12]): 0.125 micrograms/mL
- MIC P. aeruginosa ATCC-47 (Pseudomonas aeruginosa [8]; in the absence of Rifampicin, strain ATCC-47): 1 micrograms/mL
- MIC P. aeruginosa ATCCCRM-9027 (Pseudomonas aeruginosa [8]; in the absence of Rifampicin, strain ATCCCRM-9027): 0.125 micrograms/mL
- MIC P. aeruginosa CCUG 59626 (Pseudomonas aeruginosa [8]; in the absence of Rifampicin, strain CCUG 59626): ≤0.06 micrograms/mL

Compound: CCCCCC(N)CC(=O)N[C@H](C(=O)N[C@@H](CCN)C(=O)N[C@H]1CCNC(=O)[C@H](C(C)O)NC(=O)[C@H](CCN)NC(=O)[C@H](CCN)NC(=O)[C@H](CC(C)C)NC(=O)[C@@H](Cc2ccccc2)NC(=O)[C@H](CCN)NC1=O)C(C)O (single isomer, unassigned; isomer 2) [Example A33, 3-(RS)-3-amino octanoyl polymyxin B nonapeptide. Isomer 2]
- HK-2 IC50 rel to PMB (HK-2 cell line): 9.7
- HK-2 relative to PMB (HK-2 cell line): 9.7
- HK-2 toxicity (IC50) compared with PMB (HK-2 cell line): significantly increased recorded IC50 values
- Log reduction from vehicle (CFU/g) (P. aeruginosa ATCC 27853; 3.4 mg/kg, 24 h): 3.54 log CFU/g

Compound: CC(C)C[C@@H]1NC(=O)[C@@H](Cc2ccccc2)NC(=O)[C@H](CCN)NC(=O)[C@@H](NC(=O)[C@H](CCN)NC(=O)[C@@H](NC(=O)CCCCCCN)C(C)O)CCNC(=O)[C@H](C(C)O)NC(=O)[C@H](CCN)NC(=O)[C@H](CCN)NC1=O (stereo partly shown) [Example 13, 7-Aminoheptanoyl polymyxin B nonapeptide] (H-[Ahp][Thr(3ξ)][Dab][Dab][Dab][dF]L[Dab][Dab][Thr(3ξ)]; lactam 4-C)
- HK-2 relative to PMB (HK-2 cell line): 14
- HK-2 toxicity (IC50) compared with PMB (HK-2 cell line): significantly increased recorded IC50 values
- MIC K. pneumoniae ATCC 4352 (Klebsiella pneumoniae [1]): 0.125 micrograms/mL
- MIC K. pneumoniae ATCC-BAA-2146 (Klebsiella pneumoniae [1]): 0.5 micrograms/mL
- MIC K. pneumoniae CCUG-59348 (Klebsiella pneumoniae [1]): 4 micrograms/mL
- MIC K. pneumoniae NCTC 13438 (Klebsiella pneumoniae [1]; strain NCTC 13438): 1 micrograms/mL
- MIC A. baumannii ATCC BAA-747 (Acinetobacter baumannii [2]): ≤0.06 micrograms/mL
- MIC A. baumannii CCUG57249 (Acinetobacter baumannii [2]): 0.125 micrograms/mL
- MIC A. baumannii NCTC 13423 (Acinetobacter baumannii [2]): ≤0.06 micrograms/mL
- MIC A. baumannii NCTC 13424 (Acinetobacter baumannii [2]): 0.125 micrograms/mL
- MIC E. coli ATCC25922 (Escherichia coli [3]): 0.125 micrograms/mL
- MIC E. coli NCTC9001 (Escherichia coli [3]): 0.5 micrograms/mL
- MIC P. aeruginosa ATCC 27853 (Pseudomonas aeruginosa [4]): 0.25 micrograms/mL
- MIC P. aeruginosa ATCC-47 (Pseudomonas aeruginosa [4]): 0.25 micrograms/mL
- MIC P. aeruginosa CCUG 59626 (Pseudomonas aeruginosa [4]): 0.125 micrograms/mL
- MIC K. pneumoniae ATCC 4352 (Klebsiella pneumoniae [5]; [10]): 2 micrograms/mL
- MIC E. coli ATCC25922 (Escherichia coli [7]; [11]): 1 micrograms/mL
- MIC P. aeruginosa ATCC 27853 (Pseudomonas aeruginosa [8]; [12]): 0.25 micrograms/mL

Compound: CC(C)C[C@@H]1NC(=O)[C@@H](Cc2ccccc2)NC(=O)[C@H](CCN)NC(=O)[C@@H](NC(=O)[C@H](CCN)NC(=O)[C@@H](NC(=O)[C@H](CCN)NC(=O)C(O)C2CCCCC2)C(C)O)CCNC(=O)[C@H](C(C)O)NC(=O)[C@H](CCN)NC(=O)[C@H](CCN)NC1=O (stereo partly drawn) [Example A3, 2-(RS)-(2-Hydroxy-2-cyclohexyl)ethanoyl polymyxin B decapeptide] (ξHexahydromandeloyl-[Dab][Thr(3ξ)][Dab][Dab][Dab][dF]L[Dab][Dab][Thr(3ξ)]; lactam 4-C)
- HK-2 IC50 rel to PMB (HK-2 cell line): 4
- Log reduction from vehicle (CFU/g) (P. aeruginosa ATCC 27853; iv, 2 mg/kg, 9 h): 0.12 log CFU/g
- Log reduction from vehicle (CFU/g) (P. aeruginosa ATCC 27853; iv, 4 mg/kg, 9 h): 3.34 log CFU/g

Compound: CC(C)C[C@@H]1NC(=O)[C@@H](Cc2ccccc2)NC(=O)[C@H](CCN)NC(=O)[C@@H](NC(=O)[C@H](CCN)NC(=O)[C@@H](NC(=O)[C@H](CCN)NC(=O)[C@H]2CCCNC2)C(C)O)CCNC(=O)[C@H](C(C)O)NC(=O)[C@H](CCN)NC(=O)[C@H](CCN)NC1=O (stereo partly drawn) [Example A22, (S)-Piperidine-3-carbonyl polymyxin B decapeptide] (X3-[Dab][Thr(3ξ)][Dab][Dab][Dab][dF]L[Dab][Dab][Thr(3ξ)]; lactam 4-C)
- HK-2 IC50 rel to PMB (HK-2 cell line): 7.4

Compound: CC(C)C[C@@H]1NC(=O)[C@@H](Cc2ccccc2)NC(=O)[C@H](CCN)NC(=O)[C@@H](NC(=O)[C@H](CCN)NC(=O)[C@@H](NC(=O)[C@H](CCN)NC(=O)Nc2ccccc2Cl)C(C)O)CCNC(=O)[C@H](C(C)O)NC(=O)[C@H](CCN)NC(=O)[C@H](CCN)NC1=O (stereo partly shown) [Example C2, CB-182, 804 sulphate salt, reference compound] ({NH(2-ClPh)-CO}-[Dab][Thr(3ξ)][Dab][Dab][Dab][dF]L[Dab][Dab][Thr(3ξ)]; lactam 4-C)
- IC50 HK-2 cells (HK-2 cell line; HK-2 cells, 24 h, resazurin reduction, mean values of up to 6 independent studies): 22 µg/mL
- MIC K. pneumoniae ATCC 4352 (Klebsiella pneumoniae [1]): 0.25 micrograms/mL
- MIC K. pneumoniae ATCC-BAA-2146 (Klebsiella pneumoniae [1]): 0.5 micrograms/mL
- MIC K. pneumoniae CCUG-59348 (Klebsiella pneumoniae [1]): 2 micrograms/mL
- MIC A. baumannii ATCC BAA-747 (Acinetobacter baumannii [2]): 0.25 micrograms/mL
- MIC A. baumannii CCUG57249 (Acinetobacter baumannii [2]): 0.5 micrograms/mL
- MIC A. baumannii NCTC 13423 (Acinetobacter baumannii [2]): 0.25 micrograms/mL
- MIC E. coli ATCC25922 (Escherichia coli [3]): 0.125 micrograms/mL
- MIC E. coli NCTC9001 (Escherichia coli [3]): 0.25 micrograms/mL
- MIC P. aeruginosa ATCC 27853 (Pseudomonas aeruginosa [4]): 0.5 micrograms/mL
- MIC P. aeruginosa ATCC CRM-9027 (Pseudomonas aeruginosa [4]): 0.5 micrograms/mL
- MIC P. aeruginosa ATCC-47 (Pseudomonas aeruginosa [4]): 0.25 micrograms/mL
- MIC P. aeruginosa CCUG 59626 (Pseudomonas aeruginosa [4]): 0.125 micrograms/mL

Compound: Octanoyl polymyxin B nonapeptide, sulfate salt [Example C6, reference compound]
- HK-2 relative to PMB (HK-2 cell line): 3.3
- HK-2 toxicity (IC50) compared with PMB (HK-2 cell line): reduced toxicity against HK-2 compared with PMB
